In PMC6979384, “Characterization of the plant homeodomain (PHD) reader family for their histone tail interactions” (Epigenetics & Chromatin, 2020):

How the values were obtained:
Assay in all cases: Histone peptide microarray
Assay type in all cases: binding, human
[1] = test system: AIRE (PP); settings: AIRE (PP)
Procedure, shortened: (§1)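 Histone peptide library (293 synthetic peptides, single/combinatorial PTMs) arrayed and probed with 0.5 μM purified GST-PHD domain; optimized protocol; quadruplicate mean and SD reported.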

[2] = test system: BAZ2B; settings: BAZ2B
Procedure, shortened: as §1

[3] = test system: BPTF (PB); settings: BPTF (PB)
Procedure, shortened: as §1

[4] = test system: CHD4 (PPCC); settings: CHD4 (PPCC)
Procedure, shortened: as §1

[5] = test system: CHD5 (PCC); settings: CHD5 (PCC)
Procedure, shortened: as §1

[6] = test system: CHD5 (PPCC); settings: CHD5 (PPCC)
Procedure, shortened: as §1

[7] = test system: DIDO1
Procedure, shortened: as §1

[8] = test system: DPF2 (PPC2W2); settings: DPF2 (PPC2W2)
Procedure, shortened: as §1

[9] = test system: ING1
Procedure, shortened: as §1

[10] = test system: ING2
Procedure, shortened: as §1

[11] = test system: ING3
Procedure, shortened: as §1

[12] = test system: ING4
Procedure, shortened: as §1

[13] = test system: ING5
Procedure, shortened: as §1

[14] = test system: KDM4C (TTP); settings: KDM4C (TTP)
Procedure, shortened: as §1

[15] = test system: KDM5A (1); settings: KDM5A (1)
Procedure, shortened: as §1

[16] = test system: KDM5A (3); settings: KDM5A (3)
Procedure, shortened: as §1

[17] = test system: KDM5B (1); settings: KDM5B (1)
Procedure, shortened: as §1

[18] = test system: KDM5B (3); settings: KDM5B (3)
Procedure, shortened: as §1

[19] = test system: KDM7A; settings: KDM7A
Procedure, shortened: as §1

[20] = test system: MLL5
Procedure, shortened: as §1

[21] = test system: MORC3 (CW); settings: MORC3 (CW)
Procedure, shortened: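 GST-tagged PHD readers, 0.5 μM, probed on a microarray of 293 synthetic histone peptides carrying single or combinatorial PTMs (optimized Petell protocol). Signals are averaged over 4 replicates and expressed as relative binding.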

[22] = test system: PHF13
Procedure, shortened: as §1

[23] = test system: PHF21A; settings: PHF21A
Procedure, shortened: as §1

[24] = test system: PHF23
Procedure, shortened: as §1

[25] = test system: PHF2
Procedure, shortened: as §1

[26] = test system: PHF8
Procedure, shortened: as §1

[27] = test system: PHRF1 (RP); settings: PHRF1 (RP)
Procedure, shortened: as §1

[28] = test system: RAG2
Procedure, shortened: as §1

[29] = test system: SP140L; settings: SP140L
Procedure, shortened: as §1

[30] = test system: TAF3
Procedure, shortened: as §1

[31] = test system: TRIM66 (PB); settings: TRIM66 (PB)
Procedure, shortened: as §1

[32] = GST-tagged, arrays performed twice, n of 4
[33] = sheet "Array Heatmap", each array performed twice, total n = 4

## H4K5me1: H4 1-23 [Peptide H4K5me1]
[1]; [32]
  Array Heatmap value (peptide array binding signal): 0.4948
[2]; [32]
  Array Heatmap value (peptide array binding signal): 0.543
[3]; [32]
  Array Heatmap value (peptide array binding signal): 0.4183
[4]; [32]
  Array Heatmap value (peptide array binding signal): 0.6385
[5]; [32]
  Array Heatmap value (peptide array binding signal): 0.8576
[6]; [32]
  Array Heatmap value (peptide array binding signal): 0.6548
[7]; DIDO1, GST-tagged, arrays performed twice, n of 4
  Array Heatmap value (peptide array binding signal): 0.8543
[8]; [32]
  Array Heatmap value (peptide array binding signal): 0.7706
[9]; ING1, GST-tagged, arrays performed twice, n of 4
  Array Heatmap value (peptide array binding signal): 0.6473
[10]; ING2, GST-tagged, arrays performed twice, n of 4
  Array Heatmap value (peptide array binding signal): 0.6422
[11]; ING3, GST-tagged, arrays performed twice, n of 4
  Array Heatmap value (peptide array binding signal): 0.5888
[12]; ING4, GST-tagged, arrays performed twice, n of 4
  Array Heatmap value (peptide array binding signal): 0.5451
[13]; ING5, GST-tagged, arrays performed twice, n of 4
  Array Heatmap value (peptide array binding signal): 0.4376
[14]; [32]
  Array Heatmap value (peptide array binding signal): 0.5708
[15]; [32]
  Array Heatmap value (peptide array binding signal): 0.5517
[16]; [32]
  Array Heatmap value (peptide array binding signal): 0.517
[17]; [32]
  Array Heatmap value (peptide array binding signal): 0.6332
[18]; [32]
  Array Heatmap value (peptide array binding signal): 0.5457
[19]; [32]
  Array Heatmap value (peptide array binding signal): 0.4052
[20]; MLL5, GST-tagged, arrays performed twice, n of 4
  Array Heatmap value (peptide array binding signal): 0.6366
[21]; [32]
  Array Heatmap value (peptide array binding signal): 0.4265
[22]; PHF13, GST-tagged, arrays performed twice, n of 4
  Array Heatmap value (peptide array binding signal): 0.7061
[23]; [32]
  Array Heatmap value (peptide array binding signal): 0.5236
[24]; PHF23, GST-tagged, arrays performed twice, n of 4
  Array Heatmap value (peptide array binding signal): 0.6043
[25]; PHF2, GST-tagged, arrays performed twice, n of 4
  Array Heatmap value (peptide array binding signal): 0.6413
[26]; PHF8, GST-tagged, arrays performed twice, n of 4
  Array Heatmap value (peptide array binding signal): 0.4273
[27]; [32]
  Array Heatmap value (peptide array binding signal): 0.5306
[28]; RAG2, GST-tagged, arrays performed twice, n of 4
  Array Heatmap value (peptide array binding signal): 0.3031
[29]; [32]
  Array Heatmap value (peptide array binding signal): 0.3991
[30]; TAF3, GST-tagged, arrays performed twice, n of 4
  Array Heatmap value (peptide array binding signal): 0.3308
[31]; [32]
  Array Heatmap value (peptide array binding signal): 0.6456

## H4K5proK8proK12pro: H4 1-23
[1]; [33]
  Array Heatmap value (peptide array signal): 0.5223
[2]; [33]
  Array Heatmap value (peptide array signal): 0.5476
[3]; [33]
  Array Heatmap value (peptide array signal): 0.4022
[4]; [33]
  Array Heatmap value (peptide array signal): 0.656
[5]; [33]
  Array Heatmap value (peptide array signal): 0.8593
[6]; [33]
  Array Heatmap value (peptide array signal): 0.65
[7]; DIDO1, sheet "Array Heatmap", each array performed twice, total n = 4
  Array Heatmap value (peptide array signal): 0.7693
[8]; [33]
  Array Heatmap value (peptide array signal): 0.725
[9]; ING1, sheet "Array Heatmap", each array performed twice, total n = 4
  Array Heatmap value (peptide array signal): 0.5929
[10]; ING2, sheet "Array Heatmap", each array performed twice, total n = 4
  Array Heatmap value (peptide array signal): 0.6246
[11]; ING3, sheet "Array Heatmap", each array performed twice, total n = 4
  Array Heatmap value (peptide array signal): 0.5538
[12]; ING4, sheet "Array Heatmap", each array performed twice, total n = 4
  Array Heatmap value (peptide array signal): 0.5361
[13]; ING5, sheet "Array Heatmap", each array performed twice, total n = 4
  Array Heatmap value (peptide array signal): 0.4117
[14]; [33]
  Array Heatmap value (peptide array signal): 0.5585
[15]; [33]
  Array Heatmap value (peptide array signal): 0.5265
[16]; [33]
  Array Heatmap value (peptide array signal): 0.4569
[17]; [33]
  Array Heatmap value (peptide array signal): 0.629
[18]; [33]
  Array Heatmap value (peptide array signal): 0.4906
[19]; [33]
  Array Heatmap value (peptide array signal): 0.3949
[20]; MLL5, sheet "Array Heatmap", each array performed twice, total n = 4
  Array Heatmap value (peptide array signal): 0.612
[21]; [33]
  Array Heatmap value (peptide array signal): 0.3861
[22]; PHF13, sheet "Array Heatmap", each array performed twice, total n = 4
  Array Heatmap value (peptide array signal): 0.7138
[23]; [33]
  Array Heatmap value (peptide array signal): 0.5432
[24]; PHF23, sheet "Array Heatmap", each array performed twice, total n = 4
  Array Heatmap value (peptide array signal): 0.5776
[25]; PHF2, sheet "Array Heatmap", each array performed twice, total n = 4
  Array Heatmap value (peptide array signal): 0.5444
[26]; PHF8, sheet "Array Heatmap", each array performed twice, total n = 4
  Array Heatmap value (peptide array signal): 0.41
[27]; [33]
  Array Heatmap value (peptide array signal): 0.4879
[28]; RAG2, sheet "Array Heatmap", each array performed twice, total n = 4
  Array Heatmap value (peptide array signal): 0.2779
[29]; [33]
  Array Heatmap value (peptide array signal): 0.3966
[30]; TAF3, sheet "Array Heatmap", each array performed twice, total n = 4
  Array Heatmap value (peptide array signal): 0.2924
[31]; [33]
  Array Heatmap value (peptide array signal): 0.6547
